Among the data in ChEMBL document CHEMBL3886170, “Pyrrolo[3,2-c]pyridine tropomyosin-related kinase inhibitors” (2015) are IC50 values, retold here.

The target in the experiment is High affinity nerve growth factor receptor (Homo sapiens, UniProt P04629). Description: HTRF Assay: Isolated TRK Enzyme assays use the HTRF KinEASE-TK kit (Cisbio Cat#62TK0PEJ) with recombinant His-tagged cytoplasmic domains of each TRK receptor sourced from Invitrogen (see table below). […] A standard curve using the compound of Example 135 disclosed in WO2005/116035 of 150 uM is also prepared on each test plate. High percentage effect (HPE) is defined by 150 uM.
Sequence of High affinity nerve growth factor receptor (P04629 whole entry, the tested form may be a part): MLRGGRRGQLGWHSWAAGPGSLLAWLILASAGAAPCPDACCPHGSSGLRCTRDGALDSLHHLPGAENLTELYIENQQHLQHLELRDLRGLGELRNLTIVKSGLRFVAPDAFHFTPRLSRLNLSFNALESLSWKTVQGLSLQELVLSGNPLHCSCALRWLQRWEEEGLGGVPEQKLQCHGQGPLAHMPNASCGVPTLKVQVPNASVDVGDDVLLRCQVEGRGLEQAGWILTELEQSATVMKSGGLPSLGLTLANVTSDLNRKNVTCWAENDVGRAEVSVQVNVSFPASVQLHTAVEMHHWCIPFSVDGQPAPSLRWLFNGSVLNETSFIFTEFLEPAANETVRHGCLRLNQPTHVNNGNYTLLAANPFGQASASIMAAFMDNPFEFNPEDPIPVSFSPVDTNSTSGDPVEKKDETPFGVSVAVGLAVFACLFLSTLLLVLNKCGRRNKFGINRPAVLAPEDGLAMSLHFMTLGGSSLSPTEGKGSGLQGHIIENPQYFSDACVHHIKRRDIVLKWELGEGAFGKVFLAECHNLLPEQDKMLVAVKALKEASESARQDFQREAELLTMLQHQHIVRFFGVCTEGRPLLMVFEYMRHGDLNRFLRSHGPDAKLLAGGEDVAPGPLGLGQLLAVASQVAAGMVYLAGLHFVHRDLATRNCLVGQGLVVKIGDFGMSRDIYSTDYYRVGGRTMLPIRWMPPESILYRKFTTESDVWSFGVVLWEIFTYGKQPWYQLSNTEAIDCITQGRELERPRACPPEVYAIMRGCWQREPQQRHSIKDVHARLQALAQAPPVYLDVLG
For `CC(C)(CO)n1cc(C(=O)c2cncc(NC(=O)Cc3ccc(Cl)cc3)c2)c2cncc(F)c21`, the IC50 turned out to be 6.53 nM. With `CC(C)(CO)n1cc(C(=O)c2cc(NC(=O)Cn3cc(C(F)(F)F)nn3)ccn2)c2cnccc21`, the IC50 came out at 79.3 nM.

Consider `CC(C)(CO)n1cc(C(=O)c2cncc(NC(=O)Cn3cc(C4CC4)nn3)c2)c2cnccc21`, for which the half-inhibitory concentration (IC50) was found to be 12.4 nM. As to `CC(C)(CO)n1cc(C(=O)c2cncc(NC(=O)Cc3ccc(C#N)cc3)c2)c2cnccc21`, the IC50 was 9.54 nM.
